# Assay results from patent publication US20130337564A1, “Treatment of Pluripotent Cells” (Janssen Biotech, Inc., priority 2012, published 2013).
# Tests used:
# [1] = MTS viability (toxicity) assay of cells expressing pluripotency markers; type: cell-based, human; parameters: Raw data (duplicate), first replicate / Average: unit not given here; settings: human, MTS on day 4, relative to Activin A + Wnt3a positive control, read-out: % Control (percentage viability of control)
# How it was run: (§1)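 Cells expressing pluripotency markers, derived from human embryonic stem cells, were plated at 20,000 cells per well in 96-well clear-bottom plates and cultured overnight. Test compounds were applied in assay medium on days 1 and 2, and compound-free medium on days 3 and 4. On day 4, MTS was added and optical density at 490 nm was read in duplicate.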
# [2] = system: cells expressing pluripotency markers derived from human embryonic stem cells; experiment: as above; type: cell-based; parameters: Raw data (duplicate), first replicate / Average: unit not given here; settings: for Average of raw data (duplicate), optical density at 490 nm: MTS on day 4
# How it was run: as §1
# [3] = system: human embryonic stem cell line H1; experiment: Dose titration secondary assay: cell number, H1; type: cell-based; settings: Homo sapiens, Embryonic stem cell, positive control (Wnt3a/Activin A) normalized to 1.000
# How it was run: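 H1 or H9 hESCs on Matrigel treated 2 days with compound (seven 2-fold dilutions from 10 μM) in DMEM:F12, 0.5% FCS, 100 ng/ml Activin A without Wnt3a, then 2 days in 2% FCS plus Activin A. Fixed cells immunostained for Sox17 with Hoechst nuclear counterstain for imaging.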
structure (smiles),measurement,setting,value
"O=C1NC(=O)C2=C1Nc1cccc(c1)OCCC/C=C\CCCOc1cccc2c1 [Compound 233, (11Z)-8,9,10,13,14,15-Hexahydro-2,6:17,21-di(metheno)pyrrolo[3,4-h][1,15,7]dioxazacyclotricosine-22,24(1H,23H)-dione]","viability at 4 days, 2.5 μM",[1]; cmpd conc 2.5 μM,41.6%
same,"viability at 4 days, 5 μM",[1]; cmpd conc 5 μM,0%
same,"viability at 4 days, 10 μM",[1]; cmpd conc 10 μM,1.5%
same,viability at 10 µM,"[2]; Homo sapiens, Embryonic stem cell, viability of cells expressing pluripotency markers, relative to control",70.9%
same,"Raw data (duplicate), first replicate","[2]; MTS viability assay raw reading, replicate 1",0.608
same,"Raw data (duplicate), second replicate","[2]; MTS viability assay raw reading, replicate 2",0.590
same,Average,[2]; average of duplicate MTS raw readings,0.599
same,"Average of raw data (duplicate), optical density at 490 nm",[2]; cmpd conc 2.5 μM,0.4267
same,"Average of raw data (duplicate), optical density at 490 nm",[2]; cmpd conc 5 μM,0.1283
same,"Average of raw data (duplicate), optical density at 490 nm",[2]; cmpd conc 10 μM,0.1391
same,activity at 0.156 µM,[3]; Conc 0.156 μM,83.2%
same,activity at 0.313 µM,[3]; Conc 0.313 μM,79.1%
same,activity at 0.625 µM,[3]; Conc 0.625 μM,73.6%
same,activity at 1.25 µM,[3]; Conc 1.25 μM,63.6%
same,activity at 2.5 µM,[3]; Conc 2.5 μM,43.8%
same,activity at 5 µM,[3]; Conc 5 μM,8.9%
same,activity at 10 µM,[3]; Conc 10 μM,0%
